How the values were obtained:
STEME [1] = assay: Pre-emergence action against STEME, 1280 g/ha; format: in vivo, Stellaria media; settings: scored visually after about 3 weeks vs untreated controls (100% = plants have died)
Outline: (§1)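 Activity was scored visually as percent versus untreated controls about 3 weeks after treatment (100% = dead plants, 0% = control-like). Compounds, formulated as wettable powders or emulsion concentrates, were sprayed onto the covering soil over freshly sown seeds in sandy loam, with 0.5% additive and 600 L/ha water.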

AMARE [2] = assay: Pre-emergence action against AMARE, 1280 g/ha; format: in vivo, Amaranthus retroflexus; settings: scored visually after about 3 weeks vs untreated controls (100% = plants have died)
Outline: as §1

ABUTH [3] = assay: Post-emergence action against ABUTH, 1.28 kg/ha; format: in vivo, Abutilon theophrasti; settings: dosage 1280 g/ha, visual rating about 3 weeks after treatment vs untreated controls (100% = plants died)
Outline: (§2)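 Greenhouse-grown weeds (sandy loam, twin-sown pots) were treated 2–3 weeks post-sowing at one leaf. The spray was an aqueous WP/EC preparation plus 0.5% additive, applied at 600 L/ha. Scoring was visual at ~3 weeks, 0–100% versus untreated controls.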

DIGSA [4] = assay: Post-emergence action against DIGSA, 1.28 kg/ha; format: in vivo, Digitaria sanguinalis; settings: dosage 1280 g/ha, visual rating about 3 weeks after treatment vs untreated controls
Outline: as §2

KCHSC [5] = assay: Pre-emergence action against KCHSC, 1280 g/ha; format: in vivo, Bassia scoparia; settings: scored visually after about 3 weeks vs untreated controls (100% = plants have died)
Outline: as §1

ABUTH [6] = assay: Pre-emergence action against ABUTH, 1280 g/ha; format: in vivo, Abutilon theophrasti; settings: scored visually after about 3 weeks vs untreated controls (100% = plants have died)
Excerpt: 1. Pre-Emergence Herbicidal Effect and Crop Plant Compatibility a) Seeds of mono- and dicotyledonous weed plants are placed in plastic pots in sandy loam soil (doubly sown with one species each of mono- or dicotyledonous weed plants per pot) and covered with soil. The compounds of the invention, formulated in the form of wettable powders (WP) or as emulsion concentrates (EC), are then applied onto the surface of the covering soil as aqueous suspension or emulsion with addition of 0.5% additive at a water application rate equivalent to 600 litres per hectare. After the treatment, the pots are placed in a greenhouse and kept under good growth conditions for the trial plants. After about 3 weeks, the effect of the preparations is scored visually in comparison with untreated controls as percentages. For example, 100% activity=the plants have died, 0% activity=like control plants. 1. Pre-Emergence Effectiveness Tables 1 to 12 below show the effects of selected compounds of the general formula (I) according to Tables 1 and 2 on various harmful plants and at an application rate corresponding to 1280 g/ha, which were obtained by the experimental procedure mentioned above.

DIGSA [7] = assay: Pre-emergence action against DIGSA, 1280 g/ha; format: in vivo, Digitaria sanguinalis; settings: visual scoring after about 3 weeks vs untreated controls, 100% = plants have died, 0% = like control plants
Outline: as §1

SETVI [8] = assay: Pre-emergence action against SETVI, 1280 g/ha; format: in vivo, Setaria viridis; settings: visual scoring after about 3 weeks vs untreated controls, 100% = plants have died, 0% = like control plants
Outline: as §1

STEME [9] = assay: Post-emergence action against STEME, 1.28 kg/ha; format: in vivo, Stellaria media; settings: dosage 1280 g/ha, visual rating about 3 weeks after treatment vs untreated controls (100% = plants died)
Outline: as §2

VERPE [10] = assay: Post-emergence action against VERPE, 1.28 kg/ha; format: in vivo, Veronica persica; settings: dosage 1280 g/ha, visual rating about 3 weeks after treatment vs untreated controls (100% = plants died)
Outline: as §2

MATIN [11] = assay: Post-emergence action against MATIN, 1.28 kg/ha; format: in vivo, Tripleurospermum inodorum (Matricaria inodora); settings: dosage 1280 g/ha, visual rating about 3 weeks after treatment vs untreated controls (100% = plants died)
Outline: as §2

ECHCG [12] = assay: Post-emergence action against ECHCG, 1.28 kg/ha; format: in vivo, Echinochloa crus-galli; settings: dosage 1280 g/ha, visual rating about 3 weeks after treatment vs untreated controls
Outline: as §2

POAAN [13] = assay: Pre-emergence action against POAAN, 1280 g/ha; format: in vivo, Poa annua; settings: visual scoring after about 3 weeks vs untreated controls, 100% = plants have died, 0% = like control plants
Outline: as §1

MATIN [14] = assay: Pre-emergence action against MATIN, 1280 g/ha; format: in vivo, Tripleurospermum inodorum (Matricaria inodora); settings: scored visually after about 3 weeks vs untreated controls (100% = plants have died)
Outline: as §1

KCHSC [15] = assay: Post-emergence action against KCHSC, 1.28 kg/ha; format: in vivo, Bassia scoparia; settings: dosage 1280 g/ha, visual rating about 3 weeks after treatment vs untreated controls (100% = plants died)
Outline: as §2

VERPE [16] = assay: Pre-emergence action against VERPE, 1280 g/ha; format: in vivo, Veronica persica; settings: scored visually after about 3 weeks vs untreated controls (100% = plants have died)
Outline: as §1

ECHCG [17] = assay: Pre-emergence action against ECHCG, 1280 g/ha; format: in vivo, Echinochloa crus-galli; settings: visual scoring after about 3 weeks vs untreated controls, 100% = plants have died, 0% = like control plants
Outline: as §1

LOLRI [18] = assay: Pre-emergence action against LOLRI, 1280 g/ha; format: in vivo, Lolium rigidum; settings: visual scoring after about 3 weeks vs untreated controls, 100% = plants have died, 0% = like control plants
Outline: as §1

ALOMY [19] = assay: Pre-emergence action against ALOMY, 1280 g/ha; format: in vivo, Alopecurus myosuroides; settings: visual scoring after about 3 weeks vs untreated controls, 100% = plants have died, 0% = like control plants
Outline: as §1

POAAN [20] = assay: Post-emergence action against POAAN, 1.28 kg/ha; format: in vivo, Poa annua; settings: dosage 1280 g/ha, visual rating about 3 weeks after treatment vs untreated controls
Outline: as §2

AMARE [21] = assay: Post-emergence action against AMARE, 1.28 kg/ha; format: in vivo, Amaranthus retroflexus; settings: dosage 1280 g/ha, visual rating about 3 weeks after treatment vs untreated controls (100% = plants died)
Outline: as §2

ALOMY [22] = assay: Post-emergence action against ALOMY, 1.28 kg/ha; format: in vivo, Alopecurus myosuroides; settings: dosage 1280 g/ha, visual rating about 3 weeks after treatment vs untreated controls
Outline: as §2

SETVI [23] = assay: Post-emergence action against SETVI, 1.28 kg/ha; format: in vivo, Setaria viridis; settings: dosage 1280 g/ha, visual rating about 3 weeks after treatment vs untreated controls
Outline: as §2

LOLRI [24] = assay: Post-emergence action against LOLRI, 1.28 kg/ha; format: in vivo, Lolium rigidum; settings: dosage 1280 g/ha, visual rating about 3 weeks after treatment vs untreated controls
Outline: as §2

Compound	Pre-emergence action against STEME (STEME [1]) [%]	Pre-emergence action against AMARE (AMARE [2]) [%]	Post-emergence action against ABUTH (ABUTH [3]) [%]	Pre-emergence action against KCHSC (KCHSC [5]) [%]	Pre-emergence action against ABUTH (ABUTH [6]) [%]	Pre-emergence action against DIGSA (DIGSA [7]) [%]	Pre-emergence action against SETVI (SETVI [8]) [%]	Post-emergence action against STEME (STEME [9]) [%]	Post-emergence action against VERPE (VERPE [10]) [%]	Post-emergence action against MATIN (MATIN [11]) [%]	Post-emergence action against ECHCG (ECHCG [12]) [%]	Pre-emergence action against POAAN (POAAN [13]) [%]	Pre-emergence action against MATIN (MATIN [14]) [%]	Post-emergence action against KCHSC (KCHSC [15]) [%]	Pre-emergence action against VERPE (VERPE [16]) [%]	Pre-emergence action against ECHCG (ECHCG [17]) [%]	Pre-emergence action against LOLRI (LOLRI [18]) [%]	Post-emergence action against POAAN (POAAN [20]) [%]	Post-emergence action against AMARE (AMARE [21]) [%]	Post-emergence action against ALOMY (ALOMY [22]) [%]	further results
C=CCNC(=O)COc1nn(-c2ccccc2F)c(-c2cncnc2)c1Br [IX-001]	100	100	90	100	100	100	100	100	100	90	90	100	100	90	100	90	100				Post-emergence action against DIGSA (DIGSA [4]): 100%
O=C(O)C1CCCN1C(=O)COc1nn(-c2ccccc2F)c(-c2cncc(F)c2)c1Br (stereo not drawn) [Example X-039]	90	100	100	100	90	90	90	100	100	100	90	100	100	90	100	90	90	100	90	90	Pre-emergence action against ALOMY (ALOMY [19]): 90%; Post-emergence action against DIGSA (DIGSA [4]): 90%; Post-emergence action against SETVI (SETVI [23]): 100%
COC(=O)[C@@H](C)Oc1nn(-c2cc(F)ccc2F)c(-c2ccc(F)nc2)c1C#N [VII-099]	100	100	90	100	90	100	100	100	100	100		100	100	100	100	100	100	100	100	100	Pre-emergence action against ALOMY (ALOMY [19]): 90%; Post-emergence action against DIGSA (DIGSA [4]): 100%; Post-emergence action against LOLRI (LOLRI [24]): 100%
O=C(COc1nn(-c2ccccc2F)c(-c2ccc(F)nc2)c1Br)NS(=O)(=O)CC(F)(F)F [Example X-003]	100	100	90	90	90	100	100	90	90	100	90	100	100		100	100	100	100	90	100	Pre-emergence action against ALOMY (ALOMY [19]): 90%; Post-emergence action against DIGSA (DIGSA [4]): 100%
COC(=O)[C@@H](C)Oc1nn(-c2ccccc2F)c(-c2ccc(F)nc2)c1Br [VII-123-a]	100	100	90	100	90	100	100	100	90	90	100	100	100	90	100	100	100	100	90	100	Pre-emergence action against ALOMY (ALOMY [19]): 100%; Post-emergence action against LOLRI (LOLRI [24]): 100%; Post-emergence action against SETVI (SETVI [23]): 100%
O=C(O)COc1nn(-c2ccccc2F)c(-c2ccc(F)nc2)c1C(F)(F)F [VII-030]	100	100	90	90	90	90	100	100	90		100	100	90	90	90	90	100	100	90	100	
